“And” between values parts separate entries of the source, which are not always exact repeats. Identical values can stand only once.
Tested on: patients suffering from shortness of breath (SOB), acute coronary syndrome, acute heart failure (AHF), arrhythmia, asthma exacerbation, bronchitis, chest pain …
Design: species or system human
Settings: in vivo
Source text: Suitable threshold levels for the stratification of subjects into different groups (categories) have to be determined for each particular combination of vasoactive hormone or fragments thereof or precursors or fragments thereof, medication and disease. This can e.g. be done by grouping a reference population of patients according to their level of vasoactive hormone into certain quantiles, e.g. tertiles, quartiles, quintiles or even according to suitable percentiles. […] A HR around 1 (e.g. +/−0.1) indicates no elevated risk but also no benefit from medication for the particular group of patients.
Survival rates, i.e. the proportion of patients surviving at a given time after entry into the studies, are plotted in the appended figures over time for different combinations of a particular vasoactive hormone with a particular medication. The patients have been stratified into quintiles according to their respective hormone levels. […] For some cases, two or more quintiles have been pooled were appropriate. Hazard ratios (HR) have been calculated for various combinations of particular vasoactive hormones with particular medications. HR have also been calculated for particular quintiles and/or pooled quintiles and compared to overall HR for each combination.

**Q.** For `CC(=O)CC(c1ccccc1)c1c(O)c2ccccc2oc1=O` (stereo not shown) [Warfarin], which “HR Medicament (overall patient group)” value is on record?
**A.** Its value is 1.6 and 1 and 1.3 and 0.8.
